{
  "source": "paper PMC12209991",
  "about": "(Clinical Pharmacology in Drug Development, 2025)",
  "key": {"[1]": {"test": "Multiple ascending dose (MAD) pharmacokinetics in healthy volunteers, BID for 14 days", "format": "in vivo, human", "conditions": "human, plasma, oral, 500 mg, 500 mg BID, Day 14, plasma; read-out: Tmax, median [min-max]", "description": "(§1) Analytes were separated by HPLC on a Waters Atlantis T3 analytical column using a gradient mobile phase (mobile phase A: 10% acetonitrile, 90% water, 10 mM ammonium acetate, 0.3% formic acid; mobile phase B: 90% acetonitrile, 10% water, 10 mM ammonium acetate, 0.3% formic acid) run at 0.4 mL/min with initial mobile phase B concentration of 30%."}, "CYP3A4": {"target": "CYP3A4 (Homo sapiens, UniProt P08684)", "sequence (P08684 whole entry)": "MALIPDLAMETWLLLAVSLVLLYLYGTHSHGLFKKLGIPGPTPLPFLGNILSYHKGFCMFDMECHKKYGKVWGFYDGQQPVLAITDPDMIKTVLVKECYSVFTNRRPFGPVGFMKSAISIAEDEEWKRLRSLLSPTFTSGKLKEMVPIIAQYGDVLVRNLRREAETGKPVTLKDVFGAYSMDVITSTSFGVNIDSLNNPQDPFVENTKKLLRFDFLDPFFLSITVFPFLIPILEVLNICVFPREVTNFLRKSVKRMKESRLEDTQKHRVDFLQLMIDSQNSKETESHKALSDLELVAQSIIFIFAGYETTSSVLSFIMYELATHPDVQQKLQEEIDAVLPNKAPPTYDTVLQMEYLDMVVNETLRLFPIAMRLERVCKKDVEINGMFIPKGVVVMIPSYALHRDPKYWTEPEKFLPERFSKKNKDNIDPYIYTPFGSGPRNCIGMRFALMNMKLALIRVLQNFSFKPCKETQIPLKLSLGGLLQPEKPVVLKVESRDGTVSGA", "test": "In vitro metabolism", "format": "in vitro ADME", "conditions": "unpublished data"}, "[2]": {"test": "Pantoprazole (PPI) effect on RBN-3143 pharmacokinetics, cross-over", "format": "in vivo, human", "conditions": "for AUC(0-inf) / AUC(0-t) / Cmax: human, plasma, po, single 500 mg oral dose", "description": "as §1"}, "[3]": {"test": "Single ascending dose (SAD) pharmacokinetics in healthy volunteers", "format": "in vivo, human", "conditions": "for AUC(0-inf) / Cmax / Tmax: human, plasma, po", "description": "as §1"}},
  "note": "Entries after “also recorded” stand apart in the source; their conditions may differ. Read-outs that look alike come from different tables or passages of the source.",
  "data": [
    {"smiles": "CC(=O)N1CCC(COc2cc(F)c3c(=O)[nH]c(CSC4CCOCC4)nc3c2)CC1", "note": "[RBN‐3143]", "values": [
      {"measurement": "Tmax", "setting": "[1]", "value": 1.5, "unit": "h"},
      {"measurement": "metabolizing enzyme", "setting": "CYP3A4", "value": "predominantly metabolized by cytochrome P4503A4 (CYP3A4)"},
      {"measurement": "AUC(0-inf)", "setting": "[2]; 500 mg, fasted without pantoprazole, N=12, linear mixed-effects model, read-out: AUCinf, GLSM", "value": 13300, "unit": "ng·h/mL"},
      {"measurement": "AUC(0-t)", "setting": "[2]; 500 mg, fasted without pantoprazole, N=12, linear mixed-effects model, read-out: AUClast, GLSM", "value": 12800, "unit": "ng·h/mL"},
      {"measurement": "Cmax", "setting": "[2]; 500 mg, fasted without pantoprazole, N=12, linear mixed-effects model, read-out: Cmax, GLSM", "value": 1530, "unit": "ng/mL"},
      {"measurement": "AUC(0-inf)", "setting": "[2]; 500 mg, fasted without pantoprazole, read-out: AUCinf, geometric mean (Geo CV%)", "value": 13300, "unit": "ng·h/mL"},
      {"measurement": "AUC(0-inf)", "setting": "[2]; 500 mg, fasted without pantoprazole, read-out: AUCinf, mean (SD)", "value": 13800, "unit": "ng·h/mL"},
      {"measurement": "AUC(0-t)", "setting": "[2]; 500 mg, fasted without pantoprazole, read-out: AUClast, geometric mean (Geo CV%)", "value": 12800, "unit": "ng·h/mL"},
      {"measurement": "AUC(0-t)", "setting": "[2]; 500 mg, fasted without pantoprazole, read-out: AUClast, mean (SD)", "value": 13300, "unit": "ng·h/mL"},
      {"measurement": "Cmax", "setting": "[2]; 500 mg, fasted without pantoprazole, read-out: Cmax, geometric mean (Geo CV%)", "value": 1530, "unit": "ng/mL"},
      {"measurement": "Cmax", "setting": "[2]; 500 mg, fasted without pantoprazole, read-out: Cmax, mean (SD)", "value": 1600, "unit": "ng/mL"},
      {"measurement": "AUC(0-inf)", "setting": "[2]; fasted with pantoprazole 40 mg QD, N=12, linear mixed-effects model, read-out: AUCinf, GLSM", "value": 13800, "unit": "ng·h/mL"},
      {"measurement": "AUC(0-t)", "setting": "[2]; fasted with pantoprazole 40 mg QD, N=12, linear mixed-effects model, read-out: AUClast, GLSM", "value": 13400, "unit": "ng·h/mL"},
      {"measurement": "Cmax", "setting": "[2]; fasted with pantoprazole 40 mg QD, N=12, linear mixed-effects model, read-out: Cmax, GLSM", "value": 1560, "unit": "ng/mL"},
      {"measurement": "AUC(0-inf)", "setting": "[2]; fasted with pantoprazole 40 mg QD, read-out: AUCinf, geometric mean (Geo CV%)", "value": 13300, "unit": "ng·h/mL"},
      {"measurement": "AUC(0-inf)", "setting": "[2]; fasted with pantoprazole 40 mg QD, read-out: AUCinf, mean (SD)", "value": 13700, "unit": "ng·h/mL"},
      {"measurement": "AUC(0-t)", "setting": "[2]; fasted with pantoprazole 40 mg QD, read-out: AUClast, geometric mean (Geo CV%)", "value": 13000, "unit": "ng·h/mL"},
      {"measurement": "AUC(0-t)", "setting": "[2]; fasted with pantoprazole 40 mg QD, read-out: AUClast, mean (SD)", "value": 13400, "unit": "ng·h/mL"},
      {"measurement": "Cmax", "setting": "[2]; fasted with pantoprazole 40 mg QD, read-out: Cmax, geometric mean (Geo CV%)", "value": 1540, "unit": "ng/mL"},
      {"measurement": "Cmax", "setting": "[2]; fasted with pantoprazole 40 mg QD, read-out: Cmax, mean (SD)", "value": 1580, "unit": "ng/mL"},
      {"measurement": "effect of pantoprazole on RBN-3143 exposure/PK", "setting": "[2]; pantoprazole 40 mg QD pre-treatment, RBN-3143 500 mg", "value": "did not impact; also recorded: no effect; also recorded: did not alter; also recorded: unaffected"},
      {"measurement": "RBN-3143 dose excreted in urine unchanged", "setting": "[3]; SAD and MAD cohorts, pooled urine", "value": "Approximately 16%"},
      {"measurement": "AUC(0-inf)", "setting": "[3]; 25 mg, single oral dose 25 mg, read-out: AUCinf, geometric mean (Geo CV%)", "value": 734, "unit": "ng·h/mL"},
      {"measurement": "AUC(0-inf)", "setting": "[3]; 25 mg, single oral dose 25 mg, read-out: AUCinf, mean (SD)", "value": 752, "unit": "ng·h/mL"},
      {"measurement": "Cmax", "setting": "[3]; 25 mg, single oral dose 25 mg, read-out: Cmax, geometric mean (Geo CV%)", "value": 134, "unit": "ng/mL"},
      {"measurement": "Cmax", "setting": "[3]; 25 mg, single oral dose 25 mg, read-out: Cmax, mean (SD)", "value": 138, "unit": "ng/mL"},
      {"measurement": "Tmax", "setting": "[3]; 25 mg, single oral dose 25 mg, read-out: Tmax, median [min-max]", "value": 2, "unit": "h"},
      {"measurement": "AUC(0-inf)", "setting": "[3]; 50 mg, single oral dose 50 mg, read-out: AUCinf, geometric mean (Geo CV%)", "value": 1540, "unit": "ng·h/mL"},
      {"measurement": "AUC(0-inf)", "setting": "[3]; 50 mg, single oral dose 50 mg, read-out: AUCinf, mean (SD)", "value": 1560, "unit": "ng·h/mL"},
      {"measurement": "Cmax", "setting": "[3]; 50 mg, single oral dose 50 mg, read-out: Cmax, geometric mean (Geo CV%)", "value": 259, "unit": "ng/mL"},
      {"measurement": "Cmax", "setting": "[3]; 50 mg, single oral dose 50 mg, read-out: Cmax, mean (SD)", "value": 269, "unit": "ng/mL"},
      {"measurement": "Tmax", "setting": "[3]; 50 mg, single oral dose 50 mg, read-out: Tmax, median [min-max]", "value": 2, "unit": "h"},
      {"measurement": "AUC(0-inf)", "setting": "[3]; 100 mg, single oral dose 100 mg, read-out: AUCinf, geometric mean (Geo CV%)", "value": 3540, "unit": "ng·h/mL"},
      {"measurement": "AUC(0-inf)", "setting": "[3]; 100 mg, single oral dose 100 mg, read-out: AUCinf, mean (SD)", "value": 3610, "unit": "ng·h/mL"},
      {"measurement": "Cmax", "setting": "[3]; 100 mg, single oral dose 100 mg, read-out: Cmax, geometric mean (Geo CV%)", "value": 544, "unit": "ng/mL"},
      {"measurement": "Cmax", "setting": "[3]; 100 mg, single oral dose 100 mg, read-out: Cmax, mean (SD)", "value": 556, "unit": "ng/mL"},
      {"measurement": "Tmax", "setting": "[3]; 100 mg, single oral dose 100 mg, read-out: Tmax, median [min-max]", "value": 1.75, "unit": "h"},
      {"measurement": "AUC(0-inf)", "setting": "[3]; 150 mg, single oral dose 150 mg, read-out: AUCinf, geometric mean (Geo CV%)", "value": 5000, "unit": "ng·h/mL"},
      {"measurement": "AUC(0-inf)", "setting": "[3]; 150 mg, single oral dose 150 mg, read-out: AUCinf, mean (SD)", "value": 5050, "unit": "ng·h/mL"},
      {"measurement": "Cmax", "setting": "[3]; 150 mg, single oral dose 150 mg, read-out: Cmax, geometric mean (Geo CV%)", "value": 653, "unit": "ng/mL"},
      {"measurement": "Cmax", "setting": "[3]; 150 mg, single oral dose 150 mg, read-out: Cmax, mean (SD)", "value": 668, "unit": "ng/mL"},
      {"measurement": "Tmax", "setting": "[3]; 150 mg, single oral dose 150 mg, read-out: Tmax, median [min-max]", "value": 2, "unit": "h"},
      {"measurement": "AUC(0-inf)", "setting": "[3]; 300 mg, single oral dose 300 mg, read-out: AUCinf, geometric mean (Geo CV%)", "value": 6230, "unit": "ng·h/mL"},
      {"measurement": "AUC(0-inf)", "setting": "[3]; 300 mg, single oral dose 300 mg, read-out: AUCinf, mean (SD)", "value": 6440, "unit": "ng·h/mL"},
      {"measurement": "Cmax", "setting": "[3]; 300 mg, single oral dose 300 mg, read-out: Cmax, geometric mean (Geo CV%)", "value": 747, "unit": "ng/mL"},
      {"measurement": "Cmax", "setting": "[3]; 300 mg, single oral dose 300 mg, read-out: Cmax, mean (SD)", "value": 771, "unit": "ng/mL"},
      {"measurement": "Tmax", "setting": "[3]; 300 mg, single oral dose 300 mg, read-out: Tmax, median [min-max]", "value": 2, "unit": "h"},
      {"measurement": "AUC(0-inf)", "setting": "[3]; 600 mg, single oral dose 600 mg, read-out: AUCinf, geometric mean (Geo CV%)", "value": 11700, "unit": "ng·h/mL"},
      {"measurement": "AUC(0-inf)", "setting": "[3]; 600 mg, single oral dose 600 mg, read-out: AUCinf, mean (SD)", "value": 11900, "unit": "ng·h/mL"},
      {"measurement": "Cmax", "setting": "[3]; 600 mg, single oral dose 600 mg, read-out: Cmax, geometric mean (Geo CV%)", "value": 1200, "unit": "ng/mL"},
      {"measurement": "Cmax", "setting": "[3]; 600 mg, single oral dose 600 mg, read-out: Cmax, mean (SD)", "value": 1240, "unit": "ng/mL"},
      {"measurement": "Tmax", "setting": "[3]; 600 mg, single oral dose 600 mg, read-out: Tmax, median [min-max]", "value": 1.75, "unit": "h"},
      {"measurement": "AUC(0-inf)", "setting": "[3]; 1000 mg, single oral dose 1000 mg, read-out: AUCinf, geometric mean (Geo CV%)", "value": 16500, "unit": "ng·h/mL"},
      {"measurement": "AUC(0-inf)", "setting": "[3]; 1000 mg, single oral dose 1000 mg, read-out: AUCinf, mean (SD)", "value": 17700, "unit": "ng·h/mL"},
      {"measurement": "Cmax", "setting": "[3]; 1000 mg, single oral dose 1000 mg, read-out: Cmax, geometric mean (Geo CV%)", "value": 1460, "unit": "ng/mL"},
      {"measurement": "Cmax", "setting": "[3]; 1000 mg, single oral dose 1000 mg, read-out: Cmax, mean (SD)", "value": 1500, "unit": "ng/mL"},
      {"measurement": "Tmax", "setting": "[3]; 1000 mg, single oral dose 1000 mg, read-out: Tmax, median [min-max]", "value": 2.02, "unit": "h"},
      {"measurement": "Tmax", "setting": "[3]; SAD, oral, across doses 25-1000 mg, read-out: Tmax (time of peak concentrations)", "value": 2, "unit": "h"}
    ]}
  ]
}
